In BindingDB's records for doi:10.7270/Q2Q52N1X (Vanderbilt Screening Center for GPCRs, Ion Channels and …, 2009):

What follows are molecules tested against T1, Solute carrier family 12 member 5 (Homo sapiens, UniProt Q9H2X9) (assay: KCC2 modulator potency by thallium flux, dose response, cell-based, HEK293 KCC2, FluoZin-2 fluorescence (AID 1736)). Details: not given.
T1 sequence (Q9H2X9 whole entry): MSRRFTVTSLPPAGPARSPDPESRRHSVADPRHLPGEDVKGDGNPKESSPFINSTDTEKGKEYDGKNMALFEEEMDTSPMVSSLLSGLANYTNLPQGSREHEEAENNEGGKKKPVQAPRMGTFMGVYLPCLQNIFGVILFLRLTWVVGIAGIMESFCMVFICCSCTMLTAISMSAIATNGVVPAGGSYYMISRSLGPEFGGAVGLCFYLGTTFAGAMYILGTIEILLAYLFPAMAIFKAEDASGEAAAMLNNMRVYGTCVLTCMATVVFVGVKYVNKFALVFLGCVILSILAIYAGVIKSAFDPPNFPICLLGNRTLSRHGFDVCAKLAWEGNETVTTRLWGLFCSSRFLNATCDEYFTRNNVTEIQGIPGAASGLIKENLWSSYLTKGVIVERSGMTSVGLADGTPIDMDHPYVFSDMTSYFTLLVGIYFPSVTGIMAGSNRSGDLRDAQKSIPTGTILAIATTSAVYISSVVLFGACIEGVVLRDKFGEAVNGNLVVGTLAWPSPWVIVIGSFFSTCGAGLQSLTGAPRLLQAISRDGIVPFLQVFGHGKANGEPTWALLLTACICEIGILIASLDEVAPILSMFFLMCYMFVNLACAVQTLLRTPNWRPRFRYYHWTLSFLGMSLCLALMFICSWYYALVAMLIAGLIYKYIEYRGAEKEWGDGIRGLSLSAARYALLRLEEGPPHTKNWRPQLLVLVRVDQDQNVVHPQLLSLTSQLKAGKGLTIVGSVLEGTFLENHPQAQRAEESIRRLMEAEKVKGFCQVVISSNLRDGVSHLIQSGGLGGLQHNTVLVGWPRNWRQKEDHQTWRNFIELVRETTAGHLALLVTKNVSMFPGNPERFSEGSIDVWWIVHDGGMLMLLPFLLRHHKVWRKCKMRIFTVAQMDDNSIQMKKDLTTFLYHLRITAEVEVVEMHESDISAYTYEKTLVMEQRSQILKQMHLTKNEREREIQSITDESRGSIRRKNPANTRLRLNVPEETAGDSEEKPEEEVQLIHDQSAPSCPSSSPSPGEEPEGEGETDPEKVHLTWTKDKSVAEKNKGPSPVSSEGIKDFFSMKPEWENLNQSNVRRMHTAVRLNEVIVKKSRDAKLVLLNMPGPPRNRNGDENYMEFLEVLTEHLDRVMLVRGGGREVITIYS

Row | Structure (SMILES) | EC50 [µM]
1 | Cc1ccc(-c2n[nH]c(=S)n2NC=CCc2ccccc2[N+](=O)[O-])cc1 | 1.8
2 | Cc1[nH]c2ccccc2c1Cc1n[nH]c(=S)n1C | 25.1
3 | COc1cc(C=NN(C)c2ccccc2)ccc1O | 10100
4 | Cc1[nH]c2ccccc2c1Cc1nnc(S)o1 | 1.59
5 | O=c1[nH]c2c(s1)C(c1ccccc1)c1c(c(O)n(-c3ccccc3)c1O)S2 (stereo unspecified) | 0.102
6 | O=C(CSc1ccccc1C(=O)NCc1ccccc1)NC12CC3CC(CC(C3)C1)C2 | 5.21
7 | CC(C)N1C(=O)S/C(=C/c2ccccc2OCc2ccc(C(=O)O)cc2)C1=O | 218
8 | CC1CCCCN1C(=O)CSc1nnc(-c2c[nH]c3ccccc23)o1 (stereo unspecified) | 10.7
9 | NC1=NC[C@@H](Cc2ccc(O)cc2)N1CCc1cc(C(F)(F)F)cc(C(F)(F)F)c1 | 7.94
10 | O=C1OC(c2ccc(O)cc2)(c2ccc(O)cc2)c2ccccc21 | 3.29
11 | O=C(O)c1cc(-c2ccc(F)cc2F)ccc1O | 10.6
12 | O=C(c1cc2c(s1)-c1ccccc1OC2)N1CCC2(CC1)OCCO2 [1,4-dioxa-8-azaspiro[4.5]decan-8-yl(4H-thieno[3,2-c][1]benzopyran-2-yl)methanone] | 30.2
13 | O=C(CSc1nnc(C2CC2)n1Cc1ccccc1)c1cc2ccccc2o1 [1-(1-benzofuran-2-yl)-2-[(4-benzyl-5-cyclopropyl-1,2,4-triazol-3-yl)sulfanyl]ethanone] | 5.3
14 | CC1Cc2ccccc2N1C(=O)CSc1nnc(CNc2ccccc2)o1 (stereo unspecified) [1-(2-Methyl-2,3-dihydro-indol-1-yl)-2-(5-phenylaminomethyl-[1,3,4]oxadiazol-2-ylsulfanyl)-ethanone] | 18.5
15 | CC1Cc2ccccc2N1C(=O)CSc1nnnn1Cc1ccccc1 (stereo unspecified) [1-(2-methyl-2,3-dihydroindol-1-yl)-2-[[1-(phenylmethyl)-1,2,3,4-tetrazol-5-yl]sulfanyl]ethanone] | 1.91
16 | C=CCn1c(Cc2cccs2)nnc1SCC(=O)c1ccc2ccccc2c1 [1-(2-naphthalenyl)-2-[[4-prop-2-enyl-5-(thiophen-2-ylmethyl)-1,2,4-triazol-3-yl]thio]ethanone] | 4.99
17 | O=C(CSc1nnc(-c2ccc(O)cc2)n1Cc1ccco1)N1CCc2ccccc2C1 [1-(3,4-Dihydro-1H-isoquinolin-2-yl)-2-[4-furan-2-ylmethyl-5-(4-hydroxy-phenyl)-4H-[1,2,4]triazol-3-ylsulfanyl]-ethanone] | 15.3
18 | O=C(CSc1nnc(CNc2ccccc2)o1)N1CCCc2ccccc21 [1-(3,4-Dihydro-2H-quinolin-1-yl)-2-(5-phenylaminomethyl-[1,3,4]oxadiazol-2-ylsulfanyl)-ethanone] | 34.6
19 | Cc1oc(-c2ccccc2)nc1C[S+]([O-])CC(=O)N1CCc2ccccc2C1 (stereo unspecified) [1-(3,4-dihydro-1H-isoquinolin-2-yl)-2-[(5-methyl-2-phenyl-1,3-oxazol-4-yl)methylsulfinyl]ethanone] | 4.86
20 | Cc1cccc(-c2nc(C[S+]([O-])CC(=O)N3CCc4ccccc4C3)c(C)o2)c1 (stereo unspecified) [1-(3,4-dihydro-1H-isoquinolin-2-yl)-2-[[5-methyl-2-(3-methylphenyl)-1,3-oxazol-4-yl]methylsulfinyl]ethanone] | 5.03

Row | Structure (SMILES) | EC50 [µM]
21 | Cn1cc(C(=O)C(=O)N2CCCc3ccccc32)c2ccccc21 [1-(3,4-dihydro-2H-quinolin-1-yl)-2-(1-methyl-3-indolyl)ethane-1,2-dione] | 3.72
22 | O=C(CSc1ccc(-c2ccccc2)nn1)N1CCCc2ccccc21 [1-(3,4-dihydro-2H-quinolin-1-yl)-2-(6-phenylpyridazin-3-yl)sulfanyl-ethanone] | 10.5
23 | S=C(NN=Cc1cccc2ccccc12)Nc1cccc(Cl)c1 [1-(3-chlorophenyl)-3-(1-naphthalenylmethylideneamino)thiourea] | 12.7
24 | O=C(c1ccc(N2CCCCCC2)c([N+](=O)[O-])c1)N1CCc2ccccc21 [1-(4-azepan-1-yl-3-nitrobenzoyl)indoline] | 0.556
25 | O=C(CSc1nnc(Cc2ccccc2)o1)c1ccc(F)cc1 [1-(4-fluorophenyl)-2-[[5-(phenylmethyl)-1,3,4-oxadiazol-2-yl]sulfanyl]ethanone] | 3.85
26 | Cc1ccc(S(=O)(=O)N2CCC(=O)N(C(COCc3ccccc3)Cc3ccccc3)CC2)cc1 (stereo unspecified) [1-(4-methylphenyl)sulfonyl-4-(1-phenyl-3-phenylmethoxy-propan-2-yl)-1,4-diazepan-5-one] | 1.17
27 | S=C(NCc1cccnc1)Nc1ccc(Oc2ccccc2)cc1 [1-(4-phenoxyphenyl)-3-(3-pyridinylmethyl)thiourea] | 5.3
28 | O=C(C[n+]1ccccc1)c1ccc(-c2ccccc2)cc1 [1-(4-phenylphenyl)-2-(1-pyridin-1-iumyl)ethanone;bromide] | 43.6
29 | Cc1cccc(Nc2nnc(SCC(=O)c3ccc(Br)s3)s2)c1C [1-(5-bromanylthiophen-2-yl)-2-[[5-[(2,3-dimethylphenyl)amino]-1,3,4-thiadiazol-2-yl]sulfanyl]ethanone] | 1.49
30 | Cc1ccc(Nc2nnc(SCC(=O)c3ccc(Br)s3)s2)c(C)c1 [1-(5-bromanylthiophen-2-yl)-2-[[5-[(2,4-dimethylphenyl)amino]-1,3,4-thiadiazol-2-yl]sulfanyl]ethanone] | 1.02
31 | Cc1noc(C)c1S(=O)(=O)N1CCC(C(=O)N2CCN(c3ccc(F)cc3)CC2)CC1 [1-({1-[(3,5-dimethylisoxazol-4-yl)sulfonyl]piperidin-4-yl}carbonyl)-4-(4-fluorophenyl)piperazine] | 7.58
32 | O=S(=O)(NCc1ccccc1)c1ccc(Cl)c(S(=O)(=O)NCc2ccccc2)c1 [1-N,3-N-dibenzyl-4-chlorobenzene-1,3-disulfonamide] | 2.11
33 | Cc1nc2cc(C(F)(F)F)ccc2n1C1CCN(Cc2nnnn2Cc2ccc3c(c2)OCO3)CC1 [1-[1-(1-Benzo[1,3]dioxol-5-ylmethyl-1H-tetrazol-5-ylmethyl)-piperidin-4-yl]-2-methyl-5-trifluoromethyl-1H-benzoimidazole] | 16.4
34 | CC(C)(CN=C(S)NCCc1ccccc1)CN=C(S)NCCc1ccccc1 [1-[2,2-dimethyl-3-(2-phenylethylcarbamothioylamino)propyl]-3-(2-phenylethyl)thiourea] | 0.929
35 | CCOC(=O)c1cc2c(ccn2C)n1CC(=O)N1CCC(Cc2ccccc2)CC1 [1-[2-(4-Benzyl-piperidin-1-yl)-2-oxo-ethyl]-4-methyl-1,4-dihydro-pyrrolo[3,2-b]pyrrole-2-carboxylic acid ethyl ester] | 7.58
36 | Cc1ccc2oc(-c3ccc(C)c(NC(=S)NC(=O)c4cccs4)c3)nc2c1 [1-[2-Methyl-5-(5-methyl-benzooxazol-2-yl)-phenyl]-3-(thiophene-2-carbonyl)-thiourea] | 0.2
37 | CCC(c1nnc(SCc2nc3ccccc3s2)n1Cc1ccccc1)N(C)C (stereo unspecified) [1-[5-(1,3-benzothiazol-2-ylmethylsulfanyl)-4-(phenylmethyl)-1,2,4-triazol-3-yl]-N,N-dimethyl-propan-1-amine] | 6.62
38 | CN(Cc1ccccc1)c1nc2nonc2nc1N1CCCC(CN2CCCC2=O)C1 (stereo unspecified) [1-[(1-{6-[benzyl(methyl)amino][1,2,5]oxadiazolo[3,4-b]pyrazin-5-yl}piperidin-3-yl)methyl]pyrrolidin-2-one] | 9050
39 | S=C(NCCc1ccccc1)NN=Cc1cccc(Cl)c1Cl [1-[(2,3-dichlorobenzylidene)amino]-3-phenethyl-thiourea] | 7.78
40 | Fc1cccc(F)c1C=NNC(=S)Nc1cccnc1 [1-[(2,6-difluorobenzylidene)amino]-3-(3-pyridyl)thiourea] | 5.9

Same assay, conditions: inactive by the depositor's call

Row | Structure (SMILES) | EC50 [µM]
41 | CC(C(=O)N=c1sc2ccccc2n1C)N1C(=O)C2CC=CCC2C1=O (stereo unspecified) | 120
42 | COc1ccc(C(c2nnnn2Cc2cccs2)N2CCN(c3ccccc3F)CC2)cc1 (stereo unspecified) [1-(2-Fluoro-phenyl)-4-[(4-methoxy-phenyl)-(1-thiophen-2-ylmethyl-1H-tetrazol-5-yl)-methyl]-piperazine] | 13.2
43 | COc1cc(C)c(C)cc1S(=O)(=O)N1CCN(Cc2ccccc2)CC1 [1-(2-methoxy-4,5-dimethyl-phenyl)sulfonyl-4-(phenylmethyl)piperazine] | 33.3
44 | S=C(NCCc1ccccc1)NCc1cccs1 [1-(2-phenylethyl)-3-(thiophen-2-ylmethyl)thiourea] | 5.82
45 | O=C(NC(=S)Nc1ccc2c(c1)OCO2)c1ccc(Cl)cc1 [1-Benzo[1,3]dioxol-5-yl-3-(4-chloro-benzoyl)-thiourea] | 0.0741
46 | CSc1ccc(NC(=O)NCCN2CCc3ccccc3C2)cc1 [1-[2-(3,4-dihydro-1H-isoquinolin-2-yl)ethyl]-3-(4-methylsulfanylphenyl)urea] | 21.5
